Data from patent US8697637B2, “Antimicrobial peptides of the cecropin family and therapeutic uses thereof” (Institut de Recherche pour le Developpement (IRD), priority 2010, dated 2014).
In brackets after ≈: the same amount, converted by molar mass. Where a SMILES comes first, the peptide text is derived from it.

Legend:
Assay type in all cases: cell-based
parasite = assay: Antiparasitic activity (general statement); details: general statement in the description
CHIKV-147-2 GFP virus = assay: Inhibition of the infection of HEK-293T cells by chikungunya virus (GFP, flow cytometry); details: MOI 1, peptide at 10, 50 and 80 μg/ml, 48 hours
Procedure: The cells, which come from the human cell line HEK-293T (human embryonic kidney 293), are incubated for 2 hours at 37° C. in the presence of CHIKV-147-2 GFP virus (they are infected at an “MOI” of 1) with and without the peptides GK36 and MK61 to be tested, which are each prepared at concentrations of 10 μg/ml, 50 μg/ml and 80 μg/ml. The supernatant is then withdrawn and the cells are or are not brought into contact with peptides for 48 hours. The percentage of cells infected corresponds to the percentage of GFP (“green fluorescent protein”) cells visualised by flow cytometry (10,000 cells were counted per condition).

[1] = test system: dengue virus serotype 2 "DENV-2"; assay: Inhibition of the infection of dendritic cells by the dengue virus (real-time PCR); details: peptide at 2.5 μg/ml, DENV-2 MOI 0.4, 48 hours
Procedure: The dendritic cells are incubated for 3 hours at 37° C. in the presence of the dengue virus (they are infected at an “MOI” (“multiplicity of infection”) of 0.4) with and without the peptides MK61 and GK36 to be tested, which are prepared at concentrations of 2.5 μg/ml and 12 μg/ml for MK61 and 2.5 μg/ml for GK36. The supernatant is then withdrawn and the cells are or are not brought into contact with peptide for 48 hours.
Real-time PCR analyses are then carried out. The cell viability is evaluated by flow cytometry, and no cell toxicity is observed.

[2] = test system: Micrococcus luteus (Gram positive); assay: Antibacterial test, bacterial growth in LB medium (A600), MIC; details: 37° C., 24 hours, complete inhibition of growth
Procedure: (§1) The bacteria Escherichia coli (Gram negative) and Micrococcus luteus (Gram positive) are cultivated in an LB (Luria-Bertani) culture medium with and without the peptides GK36 and MK61 to be tested. The bacterial growth is checked after incubation for one night at 37° C. by measuring the change in the absorbance value at 600 nanometres (A600) with the aid of a microplate spectrophotometer. The peptides MK61 and GK36 are incubated for 24 hours with the Gram negative and Gram positive bacteria. The minimum inhibitory concentration (MIC) of the synthetic peptides GK36 and MK61 represents the lowest peptide concentration that is sufficient to inhibit bacterial growth completely.
(§2) The results obtained are shown in FIG. 1 for the bacterium Escherichia coli (Gram negative) and in FIG. 2 for the bacterium Micrococcus luteus (Gram positive).

DENV-2 = assay: Inhibition of the infection of C6/36 cells by the dengue virus (RT-PCR); details: C6/36 cells of Aedes albopictus, 5 or 10 μg/ml, 12 or 24 hours, RT-PCR bands
Procedure: (§3) The C6/36 cells of Aedes albopictus mosquitoes are incubated for one hour at 4° C. with the various dengue viruses ((serotype 1) “DENV-1” or (serotype 2) “DENV-2” or (serotype 3) “DENV-3” or (serotype 4) “DENV-4”) (with “PFUs” (“plaque forming units”) of 1). The cells are then washed three times and incubated for 12 hours or 24 hours at 28° C. in the presence or absence of the peptides GK36 and MK61 to be tested, which are each prepared at concentrations of 5 μg/ml or 10 μg/ml.
(§4) RT-PCR analyses are then carried out on the cell pellets in order to detect the presence of the dengue virus.

DENV-4 = assay: as above; details: C6/36 cells of Aedes albopictus, 5 or 10 μg/ml, 12 or 24 hours, RT-PCR bands
Procedure: as §3, §4

DENV-3 = assay: as above; details: C6/36 cells of Aedes albopictus, 5 or 10 μg/ml, 12 or 24 hours, RT-PCR bands
Procedure: as §3, §4

DENV-1 = assay: as above; details: C6/36 cells of Aedes albopictus, 5 or 10 μg/ml, 12 or 24 hours, RT-PCR bands
Procedure: as §3, §4

[3] = test system: Escherichia coli (Gram negative); details: E. coli, LB medium, 37° C., 24 hours, complete inhibition of growth
Procedure: as §1, §2

CC[C@H](C)[C@H](NC(=O)CNC(=O)[C@@H](NC(=O)[C@@H](NC(=O)[C@@H](NC(=O)[C@@H]1CCCN1C(=O)[C@H](CC(C)C)NC(=O)[C@H](C)NC(=O)[C@H](CCCCN)NC(=O)[C@H](CCC(=O)O)NC(=O)[C@H](CO)NC(=O)[C@H](C)NC(=O)[C@H](CCCCN)NC(=O)[C@H](Cc1ccccc1)NC(=O)[C@@H](NC(=O)[C@H](CCCNC(=N)N)NC(=O)[C@H](CCCCN)NC(=O)CNC(=O)[C@H](C)NC(=O)CNC(=O)[C@H](CCC(=O)O)NC(=O)[C@H](CC(C)C)NC(=O)[C@H](CCCCN)NC(=O)[C@H](CCCCN)NC(=O)CNC(=O)[C@H](CC(C)C)NC(=O)[C@H](CCCCN)NC(=O)[C@H](CCCCN)NC(=O)[C@H](CC(C)C)NC(=O)CNC(=O)CN)C(C)C)C(C)C)C(C)C)C(C)C)C(=O)N[C@@H](CCCCN)C(=O)N[C@@H](C)C(=O)N[C@H](C(=O)NCC(=O)N[C@@H](CCCCN)C(=O)O)[C@@H](C)CC [GK36] (H-GGLKKLGKKLEGAGKRVFKASEKALPVVVGIKAIGK-OH; N-terminus and C-terminus assumed)
antiparasitic activity (parasite): does not exhibit antiparasitic activity
inhibition of the infection of HEK-293T cells (CHIKV-147-2 GFP virus): inhibits the infection of the HEK-293T cells
inhibition of the infection of the dendritic cells [1]: 35%
minimum inhibitory concentration (MIC) [2]: 10 µM (≈ 36.8 µg/mL)
inhibition of the infection of C6/36 cells by dengue-2 virus (DENV-2): inhibit the infection
inhibition of the infection of C6/36 cells by dengue-4 virus (DENV-4): inhibit the infection
inhibition of the infection of C6/36 cells by dengue-3 virus (DENV-3): inhibit the infection
inhibition of the infection of C6/36 cells by dengue-1 virus (DENV-1): inhibit the infection
minimum inhibitory concentration (MIC) [3]: 0.6 µM (≈ 2.21 µg/mL)
